# According to the NIST ThermoML archive (doi:10.1021/je900812v):
# Numbers after ± are expanded uncertainties.
# Columns and labels:
# [1] = Liquid; for mass density: 298.15 K, 101.33 kPa, Pycnometric method
# [2] = refractive index (Na D-line) (dimensionless); conditions: 298.15 K; 101.33 kPa; Liquid; Standard Abbe refractometry
# [3] = Boiling temperature at pressure P; conditions: 101.3 kPa; Liquid; Ebulliometric method (Recirculating still)
smiles,measurement,setting,value
CC(C)CCO [3-methylbutan-1-ol],mass density,[1],807.6 ± 0.2 kg/m3
same,vapor or sublimation pressure,[1]; 336.35 K,5.27 ± 0.27 kPa
same,vapor or sublimation pressure,[1]; 346.9 K,9.25 ± 0.28 kPa
same,vapor or sublimation pressure,[1]; 354.2 K,12.96 ± 0.3 kPa
same,vapor or sublimation pressure,[1]; 354.3 K,13.24 ± 0.3 kPa
same,vapor or sublimation pressure,[1]; 356.85 K,14.83 ± 0.32 kPa
same,vapor or sublimation pressure,[1]; 359.75 K,17.09 ± 0.33 kPa
same,vapor or sublimation pressure,[1]; 360.65 K,17.61 ± 0.33 kPa
same,vapor or sublimation pressure,[1]; 363.55 K,20.13 ± 0.4 kPa
same,vapor or sublimation pressure,[1]; 364.05 K,20.81 ± 0.35 kPa
same,vapor or sublimation pressure,[1]; 365.45 K,21.98 ± 0.37 kPa
same,vapor or sublimation pressure,[1]; 368.3 K,25.18 ± 0.38 kPa
same,vapor or sublimation pressure,[1]; 369.5 K,26.24 ± 0.38 kPa
same,vapor or sublimation pressure,[1]; 371.5 K,28.64 ± 0.4 kPa
same,vapor or sublimation pressure,[1]; 380.65 K,41.65 ± 0.53 kPa
same,vapor or sublimation pressure,[1]; 381.65 K,43.64 ± 0.54 kPa
same,vapor or sublimation pressure,[1]; 389.6 K,59.58 ± 0.67 kPa
same,vapor or sublimation pressure,[1]; 391.35 K,64.3 ± 0.62 kPa
same,vapor or sublimation pressure,[1]; 392.65 K,66.58 ± 0.64 kPa
same,vapor or sublimation pressure,[1]; 395.55 K,74.19 ± 0.68 kPa
same,vapor or sublimation pressure,[1]; 396.9 K,77.47 ± 0.7 kPa
same,vapor or sublimation pressure,[1]; 398.25 K,81.46 ± 0.76 kPa
same,vapor or sublimation pressure,[1]; 403.05 K,96.21 ± 1.2 kPa
same,vapor or sublimation pressure,[1]; 403.75 K,99.99 ± 0.84 kPa
same,vapor or sublimation pressure,[1]; 404.55 K,101.33 ± 0.7 kPa
same,vapor or sublimation pressure,[1]; 405.15 K,103.46 ± 0.88 kPa
same,vapor or sublimation pressure,[1]; 408.05 K,114.26 ± 0.94 kPa
same,vapor or sublimation pressure,[1]; 410.95 K,125.72 ± 0.97 kPa
same,vapor or sublimation pressure,[1]; 413.05 K,133.86 ± 0.98 kPa
CC(=O)OCCC(C)C [3-methylbutyl ethanoate],mass density,[1],866.4 ± 0.2 kg/m3
same,vapor or sublimation pressure,[1]; 368.15 K,22.4 ± 0.4 kPa
same,vapor or sublimation pressure,[1]; 369.35 K,23.4 ± 0.4 kPa
same,vapor or sublimation pressure,[1]; 370.65 K,24.6 ± 0.4 kPa
same,vapor or sublimation pressure,[1]; 371.85 K,25.7 ± 0.4 kPa
same,vapor or sublimation pressure,[1]; 372.45 K,26.3 ± 0.4 kPa
same,vapor or sublimation pressure,[1]; 380.65 K,35.3 ± 0.4 kPa
same,vapor or sublimation pressure,[1]; 381.75 K,36.7 ± 0.4 kPa
same,vapor or sublimation pressure,[1]; 387 K,43.9 ± 0.5 kPa
same,vapor or sublimation pressure,[1]; 387.9 K,45.2 ± 0.5 kPa
same,vapor or sublimation pressure,[1]; 390.95 K,50 ± 0.5 kPa
same,vapor or sublimation pressure,[1]; 392.75 K,52.9 ± 0.5 kPa
same,vapor or sublimation pressure,[1]; 394.25 K,55.5 ± 0.5 kPa
same,vapor or sublimation pressure,[1]; 395.65 K,58 ± 0.5 kPa
same,vapor or sublimation pressure,[1]; 398.65 K,63.7 ± 0.6 kPa
same,vapor or sublimation pressure,[1]; 401.85 K,70.1 ± 0.6 kPa
same,vapor or sublimation pressure,[1]; 403.35 K,73.3 ± 0.6 kPa
same,vapor or sublimation pressure,[1]; 407.15 K,81.9 ± 0.7 kPa
same,vapor or sublimation pressure,[1]; 409.55 K,87.8 ± 0.7 kPa
same,vapor or sublimation pressure,[1]; 410.95 K,91.3 ± 0.7 kPa
same,vapor or sublimation pressure,[1]; 412.85 K,96.3 ± 0.7 kPa
same,vapor or sublimation pressure,[1]; 414.15 K,99.8 ± 0.7 kPa
same,vapor or sublimation pressure,[1]; 414.85 K,101.7 ± 0.8 kPa
same,vapor or sublimation pressure,[1]; 415.35 K,103.1 ± 0.8 kPa
same,vapor or sublimation pressure,[1]; 416.45 K,106.2 ± 0.8 kPa
same,refractive index,[2],1.39893 ± 0.0008
CCCCCO [pentan-1-ol],mass density,[1],811.2 ± 0.4 kg/m3
same,vapor or sublimation pressure,"[1]; 410.95 K, Ebulliometric method (Recirculating still)",101.3 kPa
same,Boiling temperature at pressure P,[3],137.80 ± 0.3 °C
same,refractive index,[2],1.4077 ± 0.0008
CCCCCOC(C)=O [pentyl ethanoate],mass density,[1],872.3 ± 0.9 kg/m3
same,vapor or sublimation pressure,"[1]; 421.55 K, Ebulliometric method (Recirculating still)",101.3 kPa
same,Boiling temperature at pressure P,[3],148.40 ± 0.3 °C
same,refractive index,[2],1.4005 ± 0.0009
